Results reported in patent US20250197387A1, “BCL-XL DEGRADERS AND USES THEREOF” (Kymera Therapeutics, Inc., priority 2021, published 2025).
Read-outs that look alike come from different tables or passages of the source.

Experiments:
Format in all cases: cell-based
MOLT-4 cells = test: CTG (CellTiter-Glo) cell viability assay, MOLT-4; settings: Homo sapiens, 3 day incubation, read-out: CTG Cell Viability Assay - MOLT-4 3 day: Average external-IC50
Method in brief: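 IC50 is from a three-parameter logistic fit of CellTiter-Glo luminescence after 3-day treatment of cells seeded at 10,000 per well. Codes: MOLT-4 A <0.1, B 0.1-1.0, C >1.0-3.0, D >3.0 μM; Caki-2 A <0.1, B 0.1-1.0, C >1.0-10.0, D >10.0 μM.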

BCL-XL = biological target: T1, BCL-XL (Homo sapiens, UniProt Q07817); test: Bcl-xL ELISA degradation in MOLT-4 cells, 6 h; settings: for DC50: read-out: Bcl-xL ELISA in MOLT-4 degradation 6 h: Mean external-Abs DC50
T1 construct: endogenous in cells; host or cells: MOLT-4
Description: The letter codes for BCL-XL DC50 include: A (<0.01 μM); B (0.01-0.1 μM); C (>[…]); D (>0.5-1.0 μM); and E (>1.0 μM). The letter codes for Dmax % include A (>75%); B (50 to 75%); C (<50%).

Caki-2 cells = test: CTG (CellTiter-Glo) cell viability assay, Caki-2; settings: Homo sapiens, 72 h, 3 day incubation, read-out: CTG Chempartner - Caki-2 3 day: Average external-IC50
Description: Compound-mediated viability effect on MOLT-4 and Caki-2 was quantitatively determined using the CellTiter-Glo® Luminescent Cell Viability Assay kit from Promega (Catalog number G7570) following manufacturer's recommended procedures. Briefly, MOLT-4 and Caki-2 cells were seeded into 384 well plates (Grenier Bio-One, Catalog number 781080) with a density of 10,000 cells per well. Compounds were then added to the assay plate with final top concentration of 10 μM and 1:3 dilution series with total of 9 doses. The final DMSO concentration is normalized to 0.2%. The assay plates were incubated at 37° C., for 3 days under 5% CO2. Then the assay plate was equilibrated at room temperature for 10 minutes. To determine cell viability, 30 uL CellTiter Glo reagent was added to each well and the assay plate was centrifuged at 1000 rpm for 30 second, incubated at room temperature for 10 min, and analyzed by detecting the luminescence using a multimode plate reader (EnVision 2105, PerkinElmer). The data was then analyzed by software Prism 7.0 from GraphPad and the dose response curves are fit using a three-parameter logistic equation to calculate IC50.
The letter codes for MOLT-4 IC50 include: A (<0.1 μM); B (0.1-1.0 μM); C (>1.0-3.0 μM); and D (>3.0 μM). The letter codes for Caki-2 IC50 include: A (<0.1 μM); B (0.1-1.0 μM); C (>1.0-10.0 μM); and D (>10.0 μM).

T1 sequence (Q07817 whole entry): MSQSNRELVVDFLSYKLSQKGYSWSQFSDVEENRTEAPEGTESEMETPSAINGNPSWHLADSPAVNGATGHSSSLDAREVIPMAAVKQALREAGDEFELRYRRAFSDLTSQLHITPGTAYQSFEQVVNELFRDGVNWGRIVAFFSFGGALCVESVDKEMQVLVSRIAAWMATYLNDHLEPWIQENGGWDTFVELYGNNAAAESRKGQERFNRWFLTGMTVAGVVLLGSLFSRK

| SMILES | IC50 (MOLT-4 cells; MOLT-4, 72 h) | Dmax (BCL-XL) | DC50 (BCL-XL) | IC50 (Caki-2 cells) | IC50 (MOLT-4 cells; 72 h) |
| --- | --- | --- | --- | --- | --- |
| Cc1cc(N(C)c2ccc(-c3cnn(CC45CC6CC(CC(C6)C4)C5)c3C)c(C(=O)NS(=O)(=O)CCCCCc3ccc4c(c3)n(C)c(=O)n4C3CCC(=O)NC3=O)n2)nnc1Nc1nc2ccccc2s1 (centres unmarked) [I-424] | < 100 nM | > 75% | < 10 nM | 1000 to 10000 nM |  |
| Cc1ncsc1-c1ccc([C@H](C)NC(=O)[C@@H]2C[C@@H](O)CN2C(=O)[C@@H](NC(=O)COCCOCCS(=O)(=O)NC(=O)c2nc(N3CCc4cccc(C(=O)Nc5nc6ccccc6s5)c4C3)ccc2-c2cnn(CC3CCCCC3)c2C)C(C)(C)C)cc1 [I-463] | < 100 nM | > 75% | 10 to 100 nM | 1000 to 10000 nM |  |
| Cc1cc(N(C)c2ccc(-c3cnn(CC45CC6CC(CC(C6)C4)C5)c3C)c(C(=O)NS(=O)(=O)CCCC(=O)N[C@H](C(=O)N3C[C@H](O)C[C@H]3C(=O)N[C@@H](C)c3ccc(-c4scnc4C)cc3)C(C)(C)C)n2)nnc1Nc1nc2cccnc2s1 [I-452] | 1000 to 3000 nM | > 75% | 100 to 500 nM | > 10000 nM |  |
| Cc1c(-c2ccc(N3CCc4cccc(C(=O)Nc5nc6ccccc6s5)c4C3)nc2C(=O)NS(=O)(=O)CCCCCc2ccc3c(c2)n(C)c(=O)n3C2CCC(=O)NC2=O)cnn1CC1CCCCC1 (centres unmarked) [I-425] | < 100 nM | > 75% | < 10 nM | 1000 to 10000 nM |  |
| C#Cc1ccc([C@H](C)NC(=O)[C@@H]2C[C@@H](O)CN2C(=O)[C@@H](NC(=O)CCCCS(=O)(=O)NC(=O)c2nc(N(C)c3cc(C)c(Nc4nc5cccnc5s4)nn3)ccc2-c2cnn(CC34CC5CC(CC(C5)C3)C4)c2C)C(C)(C)C)cc1 [I-454] | 1000 to 3000 nM | > 75% | 10 to 100 nM | > 10000 nM |  |
| Cc1cc(N(C)c2ccc(-c3cnn(CC45CC6CC(CC(C6)C4)C5)c3C)c(C(=O)NS(=O)(=O)CCCCCc3cccc4c3n(C)c(=O)n4C3CCC(=O)NC3=O)n2)nnc1Nc1nc2ccccc2s1 (centres unmarked) [I-423] | < 100 nM | > 75% | < 10 nM | 1000 to 10000 nM |  |
| C#Cc1ccc(CNC(=O)[C@@H]2C[C@@H](O)CN2C(=O)[C@H](c2cc(N3CCN(c4ccc(S(=O)(=O)NC(=O)c5nc(N6CCc7cccc(C(=O)Nc8nc9ccccc9s8)c7C6)ccc5-c5cnn(CC6CCCCC6)c5C)cc4)CC3)no2)C(C)C)c(OC)c1 [I-408] | < 100 nM | 50 to 75% | < 10 nM | > 10000 nM |  |
| C#Cc1ccc([C@H](C)NC(=O)[C@@H]2C[C@@H](O)CN2C(=O)[C@@H](NC(=O)C2CN(c3ccc(S(=O)(=O)NC(=O)c4nc(N(C)c5cc(C)c(Nc6nc7ccccc7s6)nn5)ccc4-c4cnn(CC56CC7CC(CC(C7)C5)C6)c4C)cc3)C2)C(C)(C)C)cc1 [I-438] | < 100 nM | > 75% | < 10 nM | > 10000 nM |  |
| Cc1ncsc1-c1ccc([C@H](C)NC(=O)[C@@H]2C[C@@H](O)CN2C(=O)[C@H](c2cc(OC3CCN(CCNC(=O)c4nc(N5CCc6cccc(C(=O)Nc7nc8ccccc8s7)c6C5)ccc4-c4cnn(CC5CCCCC5)c4C)CC3)no2)C(C)C)cc1 [I-292] | 100 to 1000 nM | 50 to 75% | 100 to 500 nM | 1000 to 10000 nM |  |
| Cc1ncsc1-c1ccc([C@H](C)NC(=O)[C@@H]2C[C@@H](O)CN2C(=O)[C@@H](NC(=O)CCCCS(=O)(=O)NC(=O)c2nc(N3CCc4cccc(C(=O)Nc5nc6ccccc6s5)c4C3)ccc2-c2cnn(CC3CCCCC3)c2C)C(C)(C)C)cc1 [I-317] | 100 to 1000 nM | > 75% | 10 to 100 nM | 1000 to 10000 nM |  |
| Cc1ncsc1-c1ccc([C@H](C)NC(=O)[C@@H]2C[C@@H](OC(=O)CCP(=O)(O)O)CN2C(=O)[C@@H](NC(=O)C2CCN(c3ccc(S(=O)(=O)NC(=O)c4nc(N5CCc6cccc(C(=O)Nc7nc8ccccc8s7)c6C5)ccc4-c4cnn(CC5CCCCC5)c4C)cc3)CC2)C(C)(C)C)cc1 [I-350] |  | > 75% | 10 to 100 nM | 1000 to 10000 nM | 100 to 1000 nM |
| Cc1cc(N(C)c2ccc(-c3cnn(CC45CC6CC(CC(C6)C4)C5)c3C)c(C(=O)NS(=O)(=O)c3ccc(N4CC(C(=O)N[C@H](C(=O)N5C[C@H](O)C[C@H]5C(=O)NCc5ccc(-c6scnc6C)cc5)C(C)(C)C)C4)cc3)n2)nnc1Nc1nc2ccccc2s1 [I-437] | < 100 nM | > 75% | 10 to 100 nM | > 10000 nM |  |
| C#Cc1ccc(CNC(=O)[C@@H]2C[C@@H](O)CN2C(=O)[C@@H](NC(=O)CCCCS(=O)(=O)NC(=O)c2nc(N(C)c3cc(C)c(Nc4nc5ccccc5s4)nn3)ccc2-c2cnn(CC34CC5CC(CC(C5)C3)C4)c2C)C(C)(C)C)cc1 [I-369] | < 100 nM | > 75% | 10 to 100 nM | > 10000 nM |  |
| Cc1ncsc1-c1ccc([C@H](C)NC(=O)[C@@H]2C[C@@H](O)CN2C(=O)[C@@H](NC(=O)C2CCN(c3ccc(S(=O)(=O)NC(=O)c4nc(N5CCc6cccc(C(=O)Nc7nc8ccccc8s7)c6C5)ccc4-c4cnn(CC5CCCCC5)c4C)cc3CO)CC2)C(C)(C)C)cc1 [I-316] | 100 to 1000 nM | 50 to 75% | 100 to 500 nM | > 10000 nM |  |
| Cc1ncsc1-c1ccc(CNC(=O)[C@@H]2C[C@@H](O)CN2C(=O)[C@@H](NC(=O)CCc2ccc(S(=O)(=O)NC(=O)c3nc(N4CCc5cccc(C(=O)Nc6nc7ccccc7s6)c5C4)ccc3-c3cnn(CC4CCCCC4)c3C)c(F)c2)C(C)(C)C)cc1 [I-320] | 1000 to 3000 nM | > 75% | 100 to 500 nM | > 10000 nM |  |
| Cc1ncsc1-c1ccc([C@H](C)NC(=O)[C@@H]2C[C@H](O)CN2C(=O)[C@@H](NC(=O)CCc2ccc(S(=O)(=O)NC(=O)c3nc(N4CCc5cccc(C(=O)Nc6nc7ccccc7s6)c5C4)ccc3-c3cnn(CC4CCCCC4)c3C)cc2)C(C)(C)C)cc1 [I-285] | 100 to 1000 nM | 50 to 75% | 100 to 500 nM | 1000 to 10000 nM |  |
| C#Cc1ccc(CNC(=O)[C@@H]2C[C@@H](O)CN2C(=O)[C@@H](NC(=O)CCCCS(=O)(=O)NC(=O)c2nc(N(C)c3cc(C)c(Nc4nc5cccnc5s4)nn3)ccc2-c2cnn(CC34CC5CC(CC(C5)C3)C4)c2C)C(C)(C)C)cc1 [I-453] | > 3000 nM | > 75% | 100 to 500 nM | > 10000 nM |  |
| C#Cc1ccc(CNC(=O)[C@@H]2C[C@@H](O)CN2C(=O)[C@@H](NC(=O)CCN(C)CCS(=O)(=O)NC(=O)c2nc(N3CCc4cccc(C(=O)Nc5nc6cccnc6s5)c4C3)ccc2-c2cnn(CC3CCCCC3)c2C)C(C)(C)C)cc1 [I-413] | 100 to 1000 nM | > 75% | 10 to 100 nM | > 10000 nM |  |
| Cc1ncsc1-c1ccc([C@H](C)NC(=O)[C@@H]2C[C@@H](O)CN2C(=O)[C@@H](NC(=O)CN2CCC(CS(=O)(=O)NC(=O)c3nc(N4CCc5cccc(C(=O)Nc6nc7ccccc7s6)c5C4)ccc3-c3cnn(CC4CCCCC4)c3C)CC2)C(C)(C)C)cc1 [I-335] |  | > 75% | < 10 nM | 1000 to 10000 nM | < 100 nM |
| Cc1ncsc1-c1ccc(CNC(=O)[C@@H]2C[C@@H](O)CN2C(=O)[C@@H](NC(=O)C2CCN(c3ccc(S(=O)(=O)NC(=O)c4nc(N5CCc6cccc(C(=O)Nc7nc8ccccc8s7)c6C5)ccc4-c4cnn(CC5CCCCC5)c4C)cc3C#N)CC2)C(C)(C)C)cc1 [I-360] | 100 to 1000 nM | > 75% | < 10 nM | > 10000 nM |  |
| Cc1ncsc1-c1ccc([C@H](C)NC(=O)[C@@H]2C[C@@H](O)CN2C(=O)[C@@H](NC(=O)C2CCN(c3ccc(S(=O)(=O)NC(=O)c4nc(N5CCc6cccc(C(=O)Nc7nc8ccccc8s7)c6C5)ccc4-c4cnn(CC5CCCCC5)c4C)cc3)C(=O)C2)C(C)(C)C)cc1 (some centres unmarked) [I-299] | 100 to 1000 nM | > 75% | 100 to 500 nM | 1000 to 10000 nM |  |
| C#Cc1ccc(CNC(=O)[C@@H]2C[C@@H](O)CN2C(=O)[C@@H](NC(=O)CCCCCS(=O)(=O)NC(=O)c2nc(N3CCc4cccc(C(=O)Nc5nc6ccccc6s5)c4C3)ccc2-c2cnn(CC3CCCC3)c2C)C(C)(C)C)cc1 [I-444] | < 100 nM | > 75% | < 10 nM | > 10000 nM |  |
| C#Cc1ccc([C@H](C)NC(=O)[C@@H]2C[C@@H](O)CN2C(=O)[C@@H](NC(=O)CCCCCS(=O)(=O)NC(=O)c2nc(N(C)c3cc(C)c(Nc4nc5ccccc5s4)nn3)ccc2-c2cnn(CC34CC5CC(CC(C5)C3)C4)c2C)C(C)(C)C)cc1 [I-382] | < 100 nM | > 75% | < 10 nM | > 10000 nM |  |
